Source: patent publication US20110150769A1, “IDENTIFICATION AND USE OF COMPOUNDS FOR TREATING PERSISTENT PAIN” (priority 2009, published 2011)
Entries after “also recorded” stand apart in the source; their conditions may differ.

Key:
[1] = system: CFA-induced thermal hyperalgesia in mice; experiment: CFA-induced heat hyperalgesia (Hargreaves test) after intrathecal injection; format: in vivo, mouse
Description: All behavioral tests were performed with an experimenter blinded to the genotype. The mice used in the tests were backcrossed to C57BI/6 mice for at least five generations and were 2 to 3 month-old males (20-30 g).
CFA-induced heat hyperalgesia: the intraplantar region of one hind paw of each mouse was injected with 6 μl of 50% CFA solution or 10 μl of 1% carrageneen solution in saline. Thermal pain sensitivity was assessed by recording paw withdrawal latencies on exposure to a defined radiant heat stimulus (Hargreaves test) before CFA injection and 30 min after injection.
(§1) BAM 8-22 was purchased from Tocris (Bristol, UK) and was suspended in 0.9% saline. The drug was injected intrathecally under brief isoflurane (1.5%) anesthesia to reduce stress. A 30-gauge, 0.5-inch needle connected to a 10-μl syringe was inserted into one side of the L5 or L6 spinous process at an angle of approximately 20° above the vertebral column and slipped into the groove between the spinous and transverse processes. The needle was moved carefully forward to the intervertebral space.
The ability of BAM 8-22 to modulate persistent inflammatory pain was determined by examining enhanced pain sensitivity to a noxious heat stimulus, as monitored by the Hargreaves test 24 hours after intra-plantar injection of CFA (6 μl, 50%) into one hind paw. […] In WT mice, a single intrathecal injection of BAM 8-22 (1 mM, 5 μl) was able to alleviate thermal hyperalgesia at 30 min post-injection, increasing the PWL by 1.9-fold compared to pre-drug baseline (FIG. 6A, WT, n=13, ipsilateral paw).

[2] = system: chronic constriction injury model of neuropathic pain in mice; experiment: CCI-induced mechanical allodynia (von Frey test) after intrathecal injection; format: in vivo, mouse; conditions: 0.5 mM, 5 μl i.th.
Description: A chronic constriction injury (CCI) at the left sciatic nerve was induced in adult male mice. Inhalation anesthesia was induced with a constant level of isoflurane (2.0%) delivered through a nose cone. Under aseptic conditions, the left sciatic nerve at the middle thigh level was separated from the surrounding tissue and loosely tied with three nylon sutures (9-0 nonabsorbable-monofilament, S&T AG, Neuhausen, Switzerland). The distance between two adjacent ligatures was around 0.5 mm.
CCI-induced mechanical allodynia: mechanical sensitivity was assessed with the von Frey test using the frequency method. Two calibrated von Frey monofilaments (low force: 0.07 g and high force: 0.45 g) were used. Each von Frey filament was applied perpendicularly to the plantar side of each hind paw for approximately 1 sec; the stimulation was repeated 10 times to both hind paws. The occurrence of paw withdrawal in each of these 10 trials was expressed as a percent response frequency: paw withdrawal frequency (PWF)=(number of paw withdrawals/10 trials)×100%.
BAM 8-22 was purchased from Tocris (Bristol, UK) and was suspended in 0.9% saline. The drug was injected intrathecally under brief isoflurane (1.5%) anesthesia to reduce stress. […]

[3] = system: WDR neurons in the dorsal horn of the spinal cord; experiment: Electrophysiological recording of WDR neurons, spinal topical application; format: in vivo, mouse; conditions: for A-latency / A-threshold / C-latency / C-threshold: post-BAM 8-22
Description: The electrophysiological recording of WDR neurons in the dorsal horn of the spinal cord was performed by an experimenter blinded to the genotype as previously described in Guan et al., 2006, J. Neurosci., 26:4298-4307. Mice were paralyzed with pancuronium bromide (0.15 mg/kg, i.p.) during neurophysiological recording. Throughout the experiment, anesthesia was maintained with a constant level of isoflurane (1.5%) carried in med-air. A spinal unit with a cutaneous receptive field located in the plantar area of the hind paw was located by applying mechanical stimuli. WDR neurons were defined as those that responded to both innocuous and noxious mechanical stimuli and that had increasing rates of response to increasing intensities of stimuli. Electrical stimuli were applied through a pair of fine needles inserted subcutaneously across the central plantar area of the hind paw 0.3-0.4 cm apart. Extracellular recordings of individual neurons were obtained by using fine-tip (<1.0 μm) paralyn-coated tungsten micro-electrodes ([…] at 1 kHz).
BAM 8-22 or vehicle control was applied directly to the exposed surface of the spinal cord at the recording segment in a volume of 30-50 μl following pre-drug tests. The effects of BAM 8-22 on the spontaneous activity of WDR neurons were examined within 0-10 min after application. The evoked neuronal responses were recorded 10-30 minutes after drug application. Only one neuron in each animal was used to test the drug effects. The post-drug responses were compared with the pre-drug responses, allowing each neuron to act as its own control.
The number of action potentials (APs) evoked by graded electrical stimuli was compared between two genotypes, using a two-way mixed-model analysis of variance (ANOVA) with Fisher's protected least significant difference (LSD) post-hoc test. Student's t-test was used to compare the recording depth, activation threshold and latency of the first A-fiber-mediated and the first C-fiber-mediated responses, respectively, between the two groups. For wind-up, the raw data were the number of APs in the C-component evoked by each stimulus in a train of repetitive electrical stimulation. Since the number of APs in the C-component varies among WDR neurons, the raw data for each neuron were normalized to the first response in each trial (input) and then averaged. A two-way mixed-model ANOVA was used to compare wind-up and the averaged C-component responses to the last 10 stimuli (7th-16th) of the trial between the two genotypes and between pre- and post-drug conditions. Data are presented as mean±standard error of mean (S.E.M). Statistical comparisons were made using unpaired Student's t-test and differences were considered significant at p<0.05.

[4] = system: awake mice; experiment: Spontaneous pain responses after intrathecal injection in awake mice; format: in vivo, mouse; conditions: awake WT and Mrgpr-clusterΔ−/− mice
Description: as §1
Intrathecal injection of BAM 8-22 in awake mice elicited short-term (less than 10 min) spontaneous pain responses.

[5] = molecular target: human MrgprX1 (Homo sapiens, UniProt Q96LB2); conditions: literature; cited from earlier work
human MrgprX1, sequence (Q96LB2 whole entry): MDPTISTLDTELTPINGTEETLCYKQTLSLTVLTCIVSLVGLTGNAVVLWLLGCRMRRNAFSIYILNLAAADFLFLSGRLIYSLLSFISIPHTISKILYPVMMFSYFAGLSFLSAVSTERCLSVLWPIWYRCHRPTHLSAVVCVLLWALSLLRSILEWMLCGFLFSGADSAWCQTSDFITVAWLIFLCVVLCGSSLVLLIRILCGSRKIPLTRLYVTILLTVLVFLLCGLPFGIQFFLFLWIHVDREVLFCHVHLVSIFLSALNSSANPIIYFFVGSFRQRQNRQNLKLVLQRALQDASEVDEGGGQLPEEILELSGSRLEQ

[6] = Mrgpr-clusterΔ−/− mice, 0.1 mM, 30-50 μl

Substance: BAM 8-22
- anti-hyperalgesic effect, ipsilateral hind paw ([1]; Mrgpr-clusterΔ−/− mice, 1 mM, 5 μl i.th., 24 h after CFA): not observed
- sensitivity to acute radiant heat (Hargreaves test) ([1]; WT and Mrgpr-clusterΔ−/− mice, contralateral hind paw): did not significantly change
- thermal hyperalgesia of the ipsilateral hind paw ([1]; WT mice, 1 mM, 5 μl i.th., 24 h after CFA): significantly alleviated
- increase of paw withdrawal latency (PWL) compared to pre-drug baseline ([1]; WT mice, ipsilateral paw, 1 mM, 5 μl i.th., 30 min post-injection, 24 h after CFA): 1.9 fold
- PWL of the contralateral (control side) hind paw ([1]; either group (WT, Mrgpr-clusterΔ−/−), 1 mM, 5 μl i.th.): did not significantly affect
- CCI-induced mechanical pain hypersensitivity (paw withdrawal frequency), ipsilateral hind paw ([2]; WT mice, low-force 0.07 g and high-force 0.45 g, 14-18 days post-injury, after 30 min): significantly attenuated; also recorded: significantly reduced
- paw withdrawal responses (PWF) of the contralateral, uninjured side ([2]; either group): did not significantly change; also recorded: did not significantly reduce
- input value and C-component responses of WDR neurons to 0.5 Hz stimulation ([3]; Mrgpr-clusterΔ−/− mice): significantly increased
- input value and C-component responses of WDR neurons to repetitive (0.5 and 1.0 Hz) stimulation [3, 6]: significantly increased
- wind-up levels (normalized to the input value) [3, 6]: not increased
- C-component responses of WDR neurons to graded electrical stimulation ([3]; Mrgpr-clusterΔ−/− mice, n=17, 0.1 mM, intensities >1.0 mA (2.0-5.0 mA)): significantly increased
- A-latency ([3]; Mrgpr-clusterΔ−/−): 12.9 ± 0.6 ms
- A-threshold ([3]; Mrgpr-clusterΔ−/−): 0.19 ± 0.03 mA
- C-latency ([3]; Mrgpr-clusterΔ−/−): 118 ± 4 ms
- C-threshold ([3]; Mrgpr-clusterΔ−/−): 1.9 ± 0.6 mA
- windup response after saline wash-out ([3]; WT WDR neuron, 0.5 Hz, 10-30 min after saline wash-out): partially recovered
- wind-up / C-component responses to 0.5 Hz and 1.0 Hz stimulation ([3]; WT mice, n=25, 0.1 mM, 30-50 μl): significantly attenuated; also recorded: inhibited
- windup of WDR neurons to 0.5 Hz stimulation ([3]; WT mice, n=25, spinal superfusion, 10-30 min after application): significantly attenuated; also recorded: significantly decreased; also recorded: substantially attenuated
- A-latency ([3]; Wild-type): 12.1 ± 0.7 ms
- A-threshold ([3]; Wild-type): 0.17 ± 0.03 mA
- C-latency ([3]; Wild-type): 115 ± 4 ms
- C-threshold ([3]; Wild-type): 1.7 ± 0.4 mA
- threshold and latency of the first C-fiber-mediated action potential ([3]; either WT or Mrgpr-clusterΔ−/− mice): unaffected
- duration of spontaneous pain responses elicited by intrathecal injection [4]: less than 10 min
- activation of human MrgprX1 [5]: specifically activates
